Results reported in the kinase profiling compilation of Christmann-Franck et al. (2016).

How the values were obtained:
Experiment in all cases: HTRF
KIT (human) = KIT (human) (UniProt P10721)
ABL1 (human) = ABL1 (human) (UniProt P00519)
FRK (human) = FRK (human) (UniProt P42685)
NTRK1 (human) = NTRK1 (human) (UniProt P04629)
LCK (human) = LCK (human) (UniProt P06239)
KDR (human) = KDR (human) (UniProt P35968)
CSF1R (human) = CSF1R (human) (UniProt P07333)
IGF1R (human) = IGF1R (human) (UniProt P08069)
SRC (human) = SRC (human) (UniProt P12931)
Chain of SRC (human) (P12931 whole entry, looked up): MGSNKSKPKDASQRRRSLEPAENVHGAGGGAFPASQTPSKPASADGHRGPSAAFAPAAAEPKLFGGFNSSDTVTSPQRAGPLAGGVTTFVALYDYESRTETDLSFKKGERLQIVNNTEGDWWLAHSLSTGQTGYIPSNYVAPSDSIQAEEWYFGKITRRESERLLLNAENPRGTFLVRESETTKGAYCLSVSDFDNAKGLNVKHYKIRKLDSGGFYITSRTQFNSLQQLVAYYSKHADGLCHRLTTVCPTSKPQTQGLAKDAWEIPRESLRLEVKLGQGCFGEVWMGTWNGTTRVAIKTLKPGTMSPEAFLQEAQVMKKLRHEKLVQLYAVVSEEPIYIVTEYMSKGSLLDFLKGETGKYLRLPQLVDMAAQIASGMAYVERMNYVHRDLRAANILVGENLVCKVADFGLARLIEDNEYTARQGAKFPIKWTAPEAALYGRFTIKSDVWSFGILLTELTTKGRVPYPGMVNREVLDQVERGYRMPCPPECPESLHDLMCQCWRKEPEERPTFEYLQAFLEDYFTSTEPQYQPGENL

MATK (human) = MATK (human) (UniProt P42679)
BLK (human) = BLK (human) (UniProt P51451)
FLT1 (human) = FLT1 (human) (UniProt P17948)
LYN (human) = LYN (human) (UniProt P07948)
TYRO3 (human) = TYRO3 (human) (UniProt Q06418)
SRMS (human) = SRMS (human) (UniProt Q9H3Y6)
Chain of SRMS (human) (Q9H3Y6 whole entry, looked up): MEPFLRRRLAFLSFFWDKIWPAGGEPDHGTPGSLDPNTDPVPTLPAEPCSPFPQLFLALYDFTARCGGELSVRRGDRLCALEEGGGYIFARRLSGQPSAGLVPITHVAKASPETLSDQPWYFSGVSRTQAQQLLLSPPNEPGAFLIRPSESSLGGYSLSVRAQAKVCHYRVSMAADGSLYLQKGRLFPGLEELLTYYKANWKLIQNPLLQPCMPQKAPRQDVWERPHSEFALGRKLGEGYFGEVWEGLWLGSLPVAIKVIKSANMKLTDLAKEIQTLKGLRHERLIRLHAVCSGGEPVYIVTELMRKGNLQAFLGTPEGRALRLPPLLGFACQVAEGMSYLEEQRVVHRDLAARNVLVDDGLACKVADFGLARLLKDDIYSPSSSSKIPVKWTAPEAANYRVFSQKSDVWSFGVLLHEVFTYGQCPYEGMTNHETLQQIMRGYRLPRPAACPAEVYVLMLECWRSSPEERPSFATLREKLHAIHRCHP

FLT4 (human) = FLT4 (human) (UniProt P35916)
Chain of FLT4 (human) (P35916 whole entry, looked up): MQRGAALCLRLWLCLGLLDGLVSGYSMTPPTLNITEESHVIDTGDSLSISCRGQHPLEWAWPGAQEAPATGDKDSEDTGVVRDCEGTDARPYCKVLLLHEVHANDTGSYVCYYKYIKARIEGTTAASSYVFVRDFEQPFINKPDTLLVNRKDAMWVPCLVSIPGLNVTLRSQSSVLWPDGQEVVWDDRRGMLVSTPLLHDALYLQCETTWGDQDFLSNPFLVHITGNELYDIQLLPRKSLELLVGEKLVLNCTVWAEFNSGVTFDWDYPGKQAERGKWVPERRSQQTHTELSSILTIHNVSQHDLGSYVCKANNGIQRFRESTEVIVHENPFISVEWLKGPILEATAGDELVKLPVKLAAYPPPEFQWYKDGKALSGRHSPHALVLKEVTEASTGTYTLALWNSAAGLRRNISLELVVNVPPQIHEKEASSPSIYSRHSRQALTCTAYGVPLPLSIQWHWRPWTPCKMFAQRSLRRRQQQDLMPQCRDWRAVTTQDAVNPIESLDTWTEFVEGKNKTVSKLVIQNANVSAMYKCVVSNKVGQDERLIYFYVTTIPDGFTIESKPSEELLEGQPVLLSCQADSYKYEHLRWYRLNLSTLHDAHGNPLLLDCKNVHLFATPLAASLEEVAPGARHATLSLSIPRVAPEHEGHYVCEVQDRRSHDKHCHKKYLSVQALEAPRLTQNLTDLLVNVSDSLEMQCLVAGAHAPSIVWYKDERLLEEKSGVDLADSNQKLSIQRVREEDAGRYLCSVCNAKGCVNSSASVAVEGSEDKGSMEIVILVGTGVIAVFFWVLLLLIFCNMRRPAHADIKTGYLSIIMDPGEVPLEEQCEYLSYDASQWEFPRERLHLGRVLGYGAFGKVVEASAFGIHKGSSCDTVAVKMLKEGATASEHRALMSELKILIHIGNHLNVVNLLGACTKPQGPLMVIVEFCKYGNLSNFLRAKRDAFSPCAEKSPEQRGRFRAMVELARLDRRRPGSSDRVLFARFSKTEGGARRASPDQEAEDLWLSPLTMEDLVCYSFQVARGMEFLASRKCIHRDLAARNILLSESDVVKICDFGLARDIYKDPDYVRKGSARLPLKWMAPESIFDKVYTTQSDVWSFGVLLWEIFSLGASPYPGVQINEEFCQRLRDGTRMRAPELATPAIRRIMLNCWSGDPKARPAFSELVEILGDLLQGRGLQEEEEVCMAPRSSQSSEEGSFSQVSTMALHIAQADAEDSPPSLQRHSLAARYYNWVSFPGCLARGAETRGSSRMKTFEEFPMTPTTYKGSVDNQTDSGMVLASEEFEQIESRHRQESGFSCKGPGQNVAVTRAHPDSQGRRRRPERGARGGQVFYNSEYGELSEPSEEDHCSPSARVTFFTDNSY

FGFR3 (human) = FGFR3 (human) (UniProt P22607)
Chain of FGFR3 (human) (P22607 whole entry, looked up): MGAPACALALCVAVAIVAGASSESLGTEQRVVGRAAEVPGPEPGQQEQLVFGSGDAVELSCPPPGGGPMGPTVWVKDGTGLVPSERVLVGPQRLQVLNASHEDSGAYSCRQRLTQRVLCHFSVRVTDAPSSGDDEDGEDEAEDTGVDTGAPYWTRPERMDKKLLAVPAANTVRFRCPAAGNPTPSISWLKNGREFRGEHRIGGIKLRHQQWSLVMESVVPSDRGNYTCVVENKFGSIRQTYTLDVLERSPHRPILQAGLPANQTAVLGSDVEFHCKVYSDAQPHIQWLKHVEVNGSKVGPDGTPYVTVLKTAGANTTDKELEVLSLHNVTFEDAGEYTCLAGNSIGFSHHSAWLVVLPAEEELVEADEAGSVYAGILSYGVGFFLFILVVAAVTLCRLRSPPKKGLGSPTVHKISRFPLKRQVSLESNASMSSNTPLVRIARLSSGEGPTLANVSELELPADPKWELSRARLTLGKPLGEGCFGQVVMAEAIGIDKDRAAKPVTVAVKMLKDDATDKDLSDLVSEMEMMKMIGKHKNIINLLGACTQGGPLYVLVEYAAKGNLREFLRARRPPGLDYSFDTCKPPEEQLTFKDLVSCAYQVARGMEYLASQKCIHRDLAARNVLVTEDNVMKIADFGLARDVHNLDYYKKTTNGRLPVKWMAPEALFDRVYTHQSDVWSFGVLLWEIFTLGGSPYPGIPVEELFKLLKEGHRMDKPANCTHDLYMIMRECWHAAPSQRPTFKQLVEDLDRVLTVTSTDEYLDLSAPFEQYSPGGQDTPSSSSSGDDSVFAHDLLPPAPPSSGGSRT

INSR (human) = INSR (human) (UniProt P06213)
FER (human) = FER (human) (UniProt P16591)
BTK (human) = BTK (human) (UniProt Q06187)
Chain of BTK (human) (Q06187 whole entry, looked up): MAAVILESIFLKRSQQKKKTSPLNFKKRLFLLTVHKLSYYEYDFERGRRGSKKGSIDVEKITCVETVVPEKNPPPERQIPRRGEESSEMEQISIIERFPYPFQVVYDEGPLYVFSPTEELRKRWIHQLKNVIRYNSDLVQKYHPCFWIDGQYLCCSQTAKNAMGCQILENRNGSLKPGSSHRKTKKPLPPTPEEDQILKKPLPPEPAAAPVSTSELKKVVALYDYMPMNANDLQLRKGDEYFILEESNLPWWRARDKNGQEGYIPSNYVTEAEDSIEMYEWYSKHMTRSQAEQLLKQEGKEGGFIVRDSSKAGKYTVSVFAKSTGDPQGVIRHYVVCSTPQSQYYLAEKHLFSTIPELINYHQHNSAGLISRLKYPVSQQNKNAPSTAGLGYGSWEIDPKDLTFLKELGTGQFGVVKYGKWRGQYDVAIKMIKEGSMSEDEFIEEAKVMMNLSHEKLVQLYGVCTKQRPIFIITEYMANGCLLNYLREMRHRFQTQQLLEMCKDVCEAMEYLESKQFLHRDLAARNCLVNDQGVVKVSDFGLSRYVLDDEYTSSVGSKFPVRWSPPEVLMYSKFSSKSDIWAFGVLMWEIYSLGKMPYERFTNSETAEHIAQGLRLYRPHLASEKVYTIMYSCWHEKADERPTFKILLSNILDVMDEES

MET (human) = MET (human) (UniProt P08581)
TYK2 JH1 JH2 (human) = TYK2 JH1 JH2 (human) (UniProt P29597)
FGFR1 (human) = FGFR1 (human) (UniProt P11362)
RET (human) = RET (human) (UniProt P07949)
FYN (human) = FYN (human) (UniProt P06241)
FLT3 (human) = FLT3 (human) (UniProt P36888)

Chain of KIT (human) (P10721 whole entry, looked up): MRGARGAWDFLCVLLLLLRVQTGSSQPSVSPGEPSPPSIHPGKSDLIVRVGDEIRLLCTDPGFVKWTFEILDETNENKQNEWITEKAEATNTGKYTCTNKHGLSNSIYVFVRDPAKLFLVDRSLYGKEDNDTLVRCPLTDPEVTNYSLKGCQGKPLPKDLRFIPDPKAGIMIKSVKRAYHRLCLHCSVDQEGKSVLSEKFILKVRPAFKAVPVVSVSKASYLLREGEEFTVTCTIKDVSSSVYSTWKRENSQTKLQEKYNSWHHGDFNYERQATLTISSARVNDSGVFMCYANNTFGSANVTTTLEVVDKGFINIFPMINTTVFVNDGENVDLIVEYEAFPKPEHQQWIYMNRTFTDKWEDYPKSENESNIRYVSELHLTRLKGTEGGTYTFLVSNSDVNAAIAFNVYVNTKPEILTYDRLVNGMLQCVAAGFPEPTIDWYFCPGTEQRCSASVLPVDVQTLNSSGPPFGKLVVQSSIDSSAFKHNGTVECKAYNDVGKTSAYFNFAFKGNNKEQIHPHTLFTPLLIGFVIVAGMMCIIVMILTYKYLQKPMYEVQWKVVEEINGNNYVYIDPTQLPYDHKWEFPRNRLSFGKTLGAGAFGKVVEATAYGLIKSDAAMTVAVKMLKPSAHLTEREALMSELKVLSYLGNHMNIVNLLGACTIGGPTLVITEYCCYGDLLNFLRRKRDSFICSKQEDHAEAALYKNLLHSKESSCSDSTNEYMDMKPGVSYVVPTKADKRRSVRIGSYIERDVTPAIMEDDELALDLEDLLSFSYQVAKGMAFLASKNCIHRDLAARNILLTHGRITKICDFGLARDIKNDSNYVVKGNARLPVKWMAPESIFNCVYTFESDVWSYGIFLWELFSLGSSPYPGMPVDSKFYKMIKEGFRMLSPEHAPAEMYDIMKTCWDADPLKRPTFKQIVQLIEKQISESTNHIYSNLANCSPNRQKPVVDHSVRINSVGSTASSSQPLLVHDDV

## O=C1c2ccccc2-c2n[nH]c3cccc1c23
KIT (human)
  Ki: 1260 nM
ABL1 (human)
  Ki: > 631 nM
FRK (human)
  Ki: 63.1 nM
NTRK1 (human)
  Ki: 1260 nM
LCK (human)
  Ki: 2000 nM
KDR (human)
  Ki: 631 nM
CSF1R (human)
  Ki: 126 nM
IGF1R (human)
  Ki: > 2000 nM
SRC (human)
  Ki: > 2000 nM
MATK (human)
  Ki: 501 nM
BLK (human)
  Ki: 200 nM
FLT1 (human)
  Ki: 200 nM
LYN (human)
  Ki: 1000 nM
TYRO3 (human)
  Ki: 1000 nM
SRMS (human)
  Ki: > 1580 nM
FLT4 (human)
  Ki: 15.8 nM
FGFR3 (human)
  Ki: 158 nM
INSR (human)
  Ki: 501 nM
FER (human)
  Ki: 50.1 nM
BTK (human)
  Ki: > 1260 nM
MET (human)
  Ki: 501 nM
TYK2 JH1 JH2 (human)
  Ki: 1260 nM
FGFR1 (human)
  Ki: 251 nM
RET (human)
  Ki: 63.1 nM
FYN (human)
  Ki: > 794 nM
FLT3 (human)
  Ki: 50.1 nM
